In publication PMC5131915, “Platinum(II) Iodido Complexes of 7-Azaindoles with Significant Antiproliferative Effects: An Old Story Revisited with Unexpected Outcomes” (PLoS ONE, 2016):

Key:
[1] = test system: HOS osteosarcoma cells; experiment: In vitro cytotoxicity testing (MTT assay), HOS; format: cell-based, human; conditions: for IC50: 24 h drug exposure, no recovery, MTT, read-out: IC50±SD, HOS; for selectivity factor IC50(Hep)/IC50(cancer cell line): HOS; for times more potent than cisplatin: HOS cell line
Protocol: (§1) A2780 ovarian carcinoma, A2780R cisplatin-resistant ovarian carcinoma, HOS osteosarcoma, G361 malignant melanoma, MCF7 breast carcinoma, A549 lung carcinoma, HeLa cervix carcinoma, 22Rv1 prostate carcinoma and Caco-2 colorectal carcinoma human cancer cell lines were purchased from the European Collection of Cell Cultures (ECACC), while the human non-cancerous hepatocytes (Hep) were supplied by Biopredic Intl. The cell lines were cultured, according to the suppliers`instructions, in RPMI-1640 medium supplemented with 10% of fetal calf serum, 1% of 2 mM glutamine, and 1% penicillin/streptomycin. All cell lines were grown as adherent monolayers at 37°C and 5% CO2 in a humidified atmosphere.
(§2) The cells were seeded to 96-well culture plates, pre-incubated in drug-free media at 37°C for 24 h and treated typically with the 0.01–50.0 μM solutions, prepared from the stock solutions by dilution with medium, for 24 h at 37°C. […] In parallel with compounds 1–8 and the reference drugs, the cells were also treated with vehicle (0.1% DMF in medium; negative control) and Triton X-100 (1%; positive control) to assess the minimal and maximal cell damage, respectively. The MTT assay was used to determine the cell viability; MTT = 3-(4,5-dimethylthiazol-2-yl)-2,5-diphenyltetrazolium bromide. A concentration of the formed dye was evaluated spectrophotometrically at 540 nm (TECAN, Schoeller Instruments LLC).
(§3) The data were expressed as the percentage of viability, where 100% and 0% represents the treatments with negative and positive controls, respectively. The data from the cancer cells were acquired from three independent experiments (conducted in triplicate) using cells from different passages. The resulting IC50 values (μM) were calculated from viability curves and the results are presented as arithmetic mean±SD.

[2] = test system: G361 malignant melanoma cells; experiment: In vitro cytotoxicity testing (MTT assay), G361; format: cell-based, human; conditions: 24 h drug exposure, no recovery, read-out: IC50±SD, G361
Protocol: as §1, §2, §3

[3] = test system: MCF7 breast carcinoma cells; experiment: In vitro cytotoxicity testing (MTT assay), MCF7; format: cell-based, human; conditions: 24 h drug exposure, no recovery, read-out: IC50±SD, MCF7
Protocol: as §1, §2, §3

[4] = test system: A549 lung carcinoma cells; experiment: In vitro cytotoxicity testing (MTT assay), A549; format: cell-based, human; conditions: 24 h drug exposure, no recovery, read-out: IC50±SD, A549
Protocol: as §1, §2, §3

[5] = test system: HeLa cervix carcinoma cells; experiment: In vitro cytotoxicity testing (MTT assay), HeLa; format: cell-based, human; conditions: 24 h drug exposure, no recovery, read-out: IC50±SD, HeLa
Protocol: as §1, §2, §3

[6] = test system: 22Rv1 prostate carcinoma cells; experiment: In vitro cytotoxicity testing (MTT assay), 22Rv1; format: cell-based, human; conditions: 24 h drug exposure, no recovery, read-out: IC50±SD, 22Rv1
Protocol: as §1, §2, §3

[7] = test system: A2780R cisplatin-resistant ovarian carcinoma cells; experiment: In vitro cytotoxicity testing (MTT assay), A2780R; format: cell-based, human; conditions: for IC50: 24 h drug exposure, no recovery, MTT, read-out: IC50±SD, A2780R; for resistance factor (RF), IC50(A2780R)/IC50(A2780): 24 h IC50 values
Protocol: All cell lines were grown as adherent monolayers at 37°C and 5% CO2 in a humidified atmosphere.
The MTT assay was used to determine the cell viability; MTT = 3-(4,5-dimethylthiazol-2-yl)-2,5-diphenyltetrazolium bromide. A concentration of the formed dye was evaluated spectrophotometrically at 540 nm (TECAN, Schoeller Instruments LLC).
as §3

[8] = test system: MCF7 cells; experiment: Cell cycle analysis (PI/RNase, flow cytometry), MCF7; format: cell-based, human; conditions: MCF7, 24 h, IC50 concentration
Protocol: (§4) The A2780 and MCF7 cells (1.0 × 10^6 per well) were pre-incubated in a six-well plate for 24 h as described above. […] After 24 h, floating cells were collected and attached cells were harvested using trypsin/EDTA in PBS. Total cells were washed twice with PBS and fixed in 70% ethanol. Cells were re-suspended in PBS and DNA staining was achieved by a solution of propidium iodide (PI) supplemented with RNase A (30 min, 25°C, in the dark). […] The data were analysed using CytExpert™ software (Beckman Coulter).

[9] = test system: A2780 cells; experiment: Cell cycle analysis (PI/RNase, flow cytometry), A2780; format: cell-based, human; conditions: A2780, 24 h, IC50 concentration
Protocol: as §4

[10] = test system: calf thymus DNA (ctDNA); experiment: Fluorescence quenching experiments on the EtBr/ctDNA system; format: binding; conditions: for Stern-Volmer quenching constant KSV: TRIS/NaCl buffer pH 7.2; for apparent binding constant Kapp: estimated from Q50
Protocol: A volume of 405 μL of 154 μM ctDNA and 10 μL of 3 mM EtBr were mixed together in TRIS/NaCl buffer (pH = 7.2) and incubated for 30 min at ambient temperature. […] The mixtures were incubated at ambient temperature for next 15 min. The maxima of the emitted fluorescence of EtBr/ctDNA system have been observed at 613 nm (using the 546 nm excitation wavelength) and the intensity of fluorescence was recorded on a AvaSpec HS1024x122TE fluorescence spectrometer using a 1 cm quartz cell. […] Due to the indirect nature of the fluorescence quenching method, the value of KSV can be used for the estimation of the apparent binding constant Kapp of the complex by using the equation KEB [EtBr] = Kapp [Q50], where [Q50] is the concentration of the complex causing the 50% reduction in the intensity of fluorescence of the EtBr/DNA supramolecular complex, KEB = 1.0 × 10^6 M^−1 and [EtBr] = 10 μM [27].

[11] = test system: L1210 mouse lymphocytic leukaemia cells; experiment: In vivo antitumour activity testing, L1210 lymphocytic leukaemia model; design: species or system mice; conditions: i.p.; for percentage of mean survival time T/C / mean survival time ± SD / tolerability / signs of toxicity (e.g. weight loss): dose equimolar to cisplatin 2 mg/kg; for mean survival time ± SD: 10 days after implantation, control 17.4±1.6 days
Protocol: The experimental animals used for in vivo antitumour testing were female DBA/2 SPF mice obtained from Charles Rivers Laboratories. The animals were housed in the Sealsafe NEXT—IVC Blue Line Housing System (Tecniplast, Italy) to ensure the best possible experimental conditions and eliminate the risk of possible intergroup cross-contamination, and kept in Plexiglas cages at constant temperature (22±1°C) and relative humidity of 55±5% for one-week adaptation period before the start of the experiment. All experimental procedures were performed according to the National Institute of Health (NIH) Guide for the Care and Use of Laboratory Animals. The protocol was approved by the Expert Committee on the Protection of Animals Against Cruelty at the University of Veterinary and Pharmaceutical Sciences Brno (Permit Number: 71/2013). The number of pharmacological interventions was limited to the necessary minimum in order to minimize the suffering of animals, which were observed regularly for the symptoms connected with the tumour progression. […] No animals had to be sacrificed due to the above mentioned criteria of humane treatment and no post-application deaths within the 2 hours after the application were observed during the experiment. […] The animal tissues for the ex vivo experiments and histological evaluations were taken post mortem, in case of surviving animals immediately after they were sacrificed by the lethal dose of carbon dioxide inhalation, immediately followed by the cervical dislocation.
The animals were monitored several times a day for the signs of tumour progression and distress development.

[12] = test system: caspase 3 (Cas-3), active form p17; experiment: Ex vivo Western blot of tumour tissues, cleaved caspase 3; format: in vivo, mice; conditions: pooled tumour samples
Protocol: Frozen tumour samples were homogenized by a bench blender IKA DI25 (IKA-Werke, Germany) in the presence of a lysis buffer [cOmplete Protease Inhibitor Cocktail (Roche, Germany), 50 mM Tris-HCl pH 7.5, 1 mM EGTA, 1 mM EDTA, 1 mM sodium orthovanadate, 50 mM sodium fluoride, 5 mM sodium pyrophosphate, 270 mM sucrose, 0.5% (v/v) Triton X-100]. Subsequently, the blended samples were centrifuged at 9.000 g at 4°C for 15 min. The supernatants were collected and the protein concentration was measured by the Brandford’s method using the Brandford reagent (Amresco, USA) according to the manufacturer’s manual. The measured samples were stored at -80°C for the following experiments.
The expression of caspase 3, MCL-1, p53, and β-actin as loading control were evaluated by Western blot analysis and immunodetection. Lysates were mixed with a denaturing loading dye [250 mM Tris-HCl pH 6.8, 5% (v/v) β-mercaptoethanol, 10% (w/v) sodium dodecyl sulfate, 30% (v/v) glycerol, 0.04% (w/v) bromophenol blue], heated for 5 min at 70°C. […] The final protein amount was 50 μg per well. After protein separation in the gel, they were transferred on the Immun-Blot polyvinylidene difluoride membrane 0.2 μm (Bio-Rad, USA). Then, the membrane was blocked by 5% (w/v) BSA in TBST [10 mM Tris-HCl pH 7.5, 150 mM NaCl, 0.1% (v/v) Tween-20]. […] HRP was detected by Clarity Western ECL Substrate (Bio-Rad, USA) using chemiluminescent documentation system Syngene PXi-4 (UK).

[13] = test system: spleen, renal tissue and tumour tissues of L1210 leukaemia-bearing mice; experiment: Histological observations (light microscopy, semi-quantitative); conditions: relative scale 0 to 4
Excerpt: Randomly selected paraffin block preparations were stained by standard hematoxylin and eosin stain for light microscopic evaluation. Due to high cellularity, the semi-quantitative method was used for the evaluation of necrosis in well-circumcised and diffuse tumour samples and PMN cells infiltration in normal tissues as an indirect sign of toxicity to healthy tissues. The evaluation of necrotic processes and infiltration by PMN cells was semi-quantitative, based on the percentage of necrotic areas and/or infiltrated area in the view-field of at least three different samples.

Structure (SMILES): N.N.[Cl][Pt][Cl] [Cisplatin, cisplatin, reference compound]
- IC50 [1]: 18.9 ± 1.7 µM
- IC50 [2]: 5.3 ± 0.7 µM
- IC50 [3]: 17.9 ± 3.5 µM
- IC50 [4]: > 50 µM
- IC50 [5]: 30.4 ± 11 µM
- IC50 [6]: 26.9 ± 3.5 µM
- IC50 [7]: > 50 µM
- G0/G1 population [8]: 33.4±2.8%
- G2/M population [8]: 38.2±1.9%
- S population [8]: 26.3±1.9%
- sub-G1 population [8]: 1.6±0.2%
- G0/G1 population [9]: 23.7±1.5%
- G2/M population [9]: 23.0±2.2%
- S population [9]: 50.6±2.8%
- sub-G1 population [9]: 2.0±0.2%
- Stern-Volmer quenching constant KSV [10]: 4.7 × 10^3 M^–1
- apparent binding constant Kapp [10]: 4.8 × 10^4 M^–1
- percentage of mean survival time T/C [11]: 108%
- mean survival time ± SD [11]: 18.8 ± 2.4 days
- maximum tolerated dose ([11]; mice): 2 mg/kg
- level of active form of Cas-3 in tumour tissue [12]: has not been observed
- Areas of necrosis in tumour tissues [13]: 3 (3 = up to 75%)
- Infiltration of renal tissues (PMN cells) [13]: 1 (1 = up to 25%)
- Infiltration of spleen (PMN cells) [13]: 1 (1 = up to 25%)

Structure (SMILES): Brc1cc[n+]([Pt-2]([I])([I])[n+]2ccc(Br)c3cc[nH]c32)c2[nH]ccc12 [Complex 6, cis-[Pt(4Braza)2I2]]
- IC50 [1]: 0.4 ± 0.1 µM
- selectivity factor IC50(Hep)/IC50(cancer cell line) [1]: ~10
- times more potent than cisplatin [1]: ≤ 47 times
- IC50 [2]: 3.2 ± 0.2 µM
- IC50 [3]: 1 ± 0.4 µM
- IC50 [4]: 4.3 ± 0.9 µM
- IC50 [5]: 3.8 ± 0.2 µM
- IC50 [6]: 3.8 ± 0.1 µM
- resistance factor (RF), IC50(A2780R)/IC50(A2780) [7]: 1.03
- IC50 [7]: 3.3 ± 0.4 µM
- G0/G1 population [8]: 73.9±4.6%
- G2/M population [8]: 16.6±2.1%
- S population [8]: 7.2±1.6%
- sub-G1 population [8]: 1.5±0.4%
- G0/G1 population [9]: 51.5±3.2%
- G2/M population [9]: 26.3±1.6%
- S population [9]: 17.5±0.9%
- sub-G1 population [9]: 4.3±1.4%
- Stern-Volmer quenching constant KSV [10]: 7.4 × 10^3 M^–1
- apparent binding constant Kapp [10]: 7.8 × 10^4 M^–1
- tolerability / signs of toxicity (e.g. weight loss) [11]: well-tolerated
- percentage of mean survival time T/C [11]: 99%
- mean survival time ± SD [11]: 17.3 ± 2.1 days
- level of active form of Cas-3 in tumour tissue [12]: has not been observed
- Areas of necrosis in tumour tissues [13]: 1–2
- Infiltration of renal tissues (PMN cells) [13]: 1 (1 = up to 25%)
- Infiltration of spleen (PMN cells) [13]: 2 (2 = up to 50%)

Structure (SMILES): Cc1cc2c(Cl)cc[n+]([Pt-2]([I])([I])[n+]3ccc(Cl)c4cc(C)[nH]c43)c2[nH]1 [Complex 8, cis-[PtI2(2Me4Claza)2]]
- IC50 [1]: 0.7 ± 0.2 µM
- selectivity factor IC50(Hep)/IC50(cancer cell line) [1]: ~14
- times more potent than cisplatin [1]: ≤ 47 times
- IC50 [2]: 1.7 ± 1.3 µM
- IC50 [3]: 2.1 ± 1 µM
- IC50 [4]: 3.5 ± 0.2 µM
- IC50 [5]: 3.8 ± 0.1 µM
- IC50 [6]: 3.5 ± 0.2 µM
- resistance factor (RF), IC50(A2780R)/IC50(A2780) [7]: 0.59
- IC50 [7]: 1 ± 0.4 µM
- G0/G1 population [8]: 64.5±3.3%
- G2/M population [8]: 25.4±2.6%
- S population [8]: 8.9±2.1%
- sub-G1 population [8]: 1.2±0.4%
- G0/G1 population [9]: 55.2±2.2%
- G2/M population [9]: 23.9±2.3%
- S population [9]: 18.3±1.3%
- sub-G1 population [9]: 2.2±0.4%
- Stern-Volmer quenching constant KSV [10]: 1.4 × 10^4 M^–1
- apparent binding constant Kapp [10]: 1.2 × 10^5 M^–1
- tolerability / signs of toxicity (e.g. weight loss) [11]: well-tolerated
- percentage of mean survival time T/C [11]: 109%
- mean survival time ± SD [11]: 19.0 ± 2.4 days
- level of active form of Cas-3 in tumour tissue [12]: dramatically increased
- Areas of necrosis in tumour tissues [13]: 3 (3 = up to 75%)
- Infiltration of renal tissues (PMN cells) [13]: 0–1
- Infiltration of spleen (PMN cells) [13]: 1–2
